Measured values as given in patent publication US9635857B2, “Tetrazolinone compound and use thereof” (SUMITOMO CHEMICAL COMPANY, LIMITED, priority 2013, dated 2017).

Test system: soybean rust fungus (Phakopsora pachyrhizi)
Experiment: Test Example 7: soybean rust control, foliar spray on soybean
Assay type: in vivo
Details: 200 ppm sprayed on soybean (KUROSENGOKU); inoculated after 2 days; assessed after 3 + 14 days

## CON=C(C)c1cccc(OCc2c(C)cccc2-n2nnn(C)c2=O)n1 [compound 44]
  area of lesion on the treated plant relative to that on an untreated plant: ≤ 30%
